These results are taken from US20190124918A1, “BIOFILM FORMATION INHIBITOR AND BIOFILM FORMATION INHIBITING COMPOSITION” (KAO CORPORATION, priority 2016, published 2019).

Assay [1] relates to Pseudomonas PAO1 strain (ATCC 15692). Briefly: Growth of test microbe (turbidity OD600), 96-well microplate culture. The format is cell-based. The note with it: for inhibition at 5 ppm: final concentration 5 ppm; for inhibition at 9 ppm: final concentration 9 ppm; for inhibition at 18 ppm: final concentration 18 ppm; for inhibition at 27 ppm: final concentration 27 ppm; for inhibition at 32 ppm: final concentration 32 ppm; for inhibition at 37 ppm: final concentration 37 ppm; for inhibition at 101 ppm: final concentration 101 ppm. Here is the method: Pseudomonas PAO1 strain (ATCC 15692) was subjected to stationary culture performed in LB culture medium (Lysogeny Broth; manufactured by Becton Dickinson) at 37° C. for 24 hours. The turbidity (OD600) of the culture solution was measured. The culture solution was diluted with Mueller Hinton Broth (BBL made) to prepare a suspension (15 mL) having a turbidity (OD600) of 1/10^6.
To each of the wells of a 96-well microplate (351172; manufactured by Japan Becton Dickinson), 6 μL of DMSO (Tokyo Chemical Industry Co. Ltd) and an ethanol solution (1 μL, 3 μL or 5 μL) of a test compound were added. After that, the microplate was allowed to stand still at room temperature for 5 hours to evaporate ethanol. The suspension of Pseudomonas microbe prepared in the above step 1) was added in an amount of 145 μL per well and culture was initiated. As the test compound, 2-methylhydroquinone (Sigma Aldrich) and p-toluquinone (Tokyo Kasei) were used. As a reference compound, sodium hypochlorite (manufactured by Wako Pure Chemical Industries Ltd.) was used. As a control, an ethanol solvent (EtOH control) alone was used. The concentration of the test compound in the ethanol solution is 1,000 ppm or 10,000 ppm and the final concentration of the test compound in the culture solution was about from 7 to 333 ppm.
After the 96-well microplate was subjected to stationary culture performed at 30° C. for 24 hours, turbidity (OD600) was measured to check growth. Subsequently, individual wells were stained with 0.1% crystal violet and thoroughly washed twice with physiological saline. To each well, 200 μL of ethanol was added and the absorbance (OD570) was measured to obtain the amount of the biofilm formed.
Compounds listed in Table 3 were each added to a test microbe and culture was conducted by the same procedure as in Test Example 1 and the amount of growth (OD600) and the amount of biofilm formed (OD570) were measured. For compounds a, b, c, f, h, i, J and k, 20 mM ethanol solutions were prepared; whereas for compounds d, e, g, 5 mM ethanol solutions were prepared. The solutions were each added to a 96-well microplate in an amount of 1 to 8 μL and evaluation was made. The final concentrations of the individual compounds are described in Table 3.
(§1) Growth inhibition rates relative to the control (ethanol alone) were calculated based on OD600 values measured and in accordance with the following expression. In addition, biofilm (BF) formation inhibition rates relative to the control (ethanol alone) were calculated based on OD570 values and in accordance with the following expression:
Growth inhibition (%)=(1−(compound addition group OD600/control group OD600))×100
(§2) As a control, an ethanol solvent alone was used (EtOH control). The concentrations of test compounds in the ethanol solution were as follows: test compound 1: 20 mM, test compounds 2 to 7: 100 mM. To each of the wells of a 96-well microplate (351172; manufactured by Japan Becton Dickinson), 6 μL of DMSO (Tokyo Kasei) and an ethanol solution of each test compound (1 to 8 μL) were added and then the microplates were allowed to stand still at room temperature for 5 hours to evaporate ethanol. A suspension solution of a Pseudomonas microbe prepared in the same procedure as in Test Example 1, 1) was added in an amount of 145 μL per well and culture was initiated.
(§3) After the 96-well microplate was subjected to stationary culture at 30° C. for 24 hours, turbidity (OD600) was measured to check growth. Subsequently, individual wells were stained with 0.1% crystal violet and thoroughly washed twice with physiological saline. To each well, 200 μL of ethanol was added and the absorbance (OD570) was measured to obtain the amount of the biofilm formed. The growth inhibition rate and biofilm (BF) formation inhibition rate were calculated based on OD600 and OD570 values measured and in accordance with the expressions used in Test Example 2.

Assay [2] has the same test system. Briefly: Amount of biofilm formed (crystal violet, OD570), 96-well microplate culture. As to conditions: for inhibition at 5 ppm: final concentration 5 ppm; for inhibition at 9 ppm: final concentration 9 ppm; for inhibition at 18 ppm: final concentration 18 ppm; for inhibition at 27 ppm: final concentration 27 ppm; for inhibition at 32 ppm: final concentration 32 ppm; for inhibition at 37 ppm: final concentration 37 ppm; for inhibition at 101 ppm: final concentration 101 ppm. The class given is cell-based. On the procedure: Pseudomonas PAO1 strain (ATCC 15692) was subjected to stationary culture performed in LB culture medium (Lysogeny Broth; manufactured by Becton Dickinson) at 37° C. for 24 hours. The turbidity (OD600) of the culture solution was measured. The culture solution was diluted with Mueller Hinton Broth (BBL made) to prepare a suspension (15 mL) having a turbidity (OD600) of 1/10^6. […]
as §1
BF inhibition (%)={1−(compound addition group OD570/control group OD570)}×100
as §2, §3

Where [3] appears, read: Pseudomonas, read-out: BF inhibition (%).

On to `OCl` [Sodium hypochlorite, sodium hypochlorite, reference compound], for which the “microbial growth (in words)” value in assay [1] (Test Example 1, 7 to 333 ppm) is reported as “inhibited”. In addition, the “Growth OD600” value was determined as 0.5938 in assay [1] (final concentration 7 ppm, EtOH control 0.5913); 0.4966 in assay [1] (final concentration 20 ppm, EtOH control 0.6346); 0.4445 in assay [1] (final concentration 33 ppm, EtOH control 0.668); 0.4585 in assay [1] (final concentration 67 ppm, EtOH control 0.628); 0.3016 in assay [1] (final concentration 200 ppm, EtOH control 0.6045); 0.2758 in assay [1] (final concentration 333 ppm, EtOH control 0.6088). Also, the “biofilm formation (in words)” value in assay [2] (Test Example 1, 7 to 333 ppm) is “inhibited”. In addition, the “The amount of the biofilm formed OD570” value stood at 0.9918 in assay [2] (final concentration 7 ppm, EtOH control 0.9163); 0.9042 in assay [2] (final concentration 20 ppm, EtOH control 0.9564); 0.7879 in assay [2] (final concentration 33 ppm, EtOH control 0.8974); 0.7277 in assay [2] (final concentration 67 ppm, EtOH control 0.8853); 0.7579 in assay [2] (final concentration 200 ppm, EtOH control 0.9248); 0.4967 in assay [2] (final concentration 333 ppm, EtOH control 0.9562).

Usually inhibition stands for the percentage by which the read-out fell short of the control. Turning to `CC(C)(C)C1=CC(=O)C=CC1=O` [k, tert-Butylbenzoquinone], the inhibition at 22 ppm in assay [1] (Pseudomonas, final concentration 22 ppm) was 8.9%; in assay [2] (Pseudomonas, final concentration 22 ppm, read-out: BF inhibition (%)), less than 0%. Also, the inhibition at 44 ppm in assay [1] (Pseudomonas, final concentration 44 ppm) is less than 0%; in assay [2] (Pseudomonas, final concentration 44 ppm, read-out: BF inhibition (%)), less than 0%. Further, the inhibition at 88 ppm in assay [1] (Pseudomonas, final concentration 88 ppm) is less than 0%; in assay [2] (Pseudomonas, final concentration 88 ppm, read-out: BF inhibition (%)), less than 0%. In addition, the inhibition at 131 ppm in assay [1] (Pseudomonas, final concentration 131 ppm) was less than 0%; in assay [2] (Pseudomonas, final concentration 131 ppm, read-out: BF inhibition (%)), less than 0%. Also, the inhibition at 154 ppm is less than 0% in assay [1] (Pseudomonas, final concentration 154 ppm) and 26.2% in assay [2] (Pseudomonas, final concentration 154 ppm, read-out: BF inhibition (%)). The inhibition at 175 ppm in assay [1] (Pseudomonas, final concentration 175 ppm) is less than 0%; in assay [2] (Pseudomonas, final concentration 175 ppm, read-out: BF inhibition (%)) it was 30.3%.

In assay [1] (Pseudomonas), `Cc1c(O)ccc(O)c1C` [e, 2,3-Dimethylhydroquinone] displayed an inhibition at 5 ppm of less than 0%, an inhibition at 9 ppm of 13.1%, an inhibition at 18 ppm of 0.8% and an inhibition at 27 ppm of less than 0%. Further, in assay [1] (Pseudomonas), 32 ppm produced 14% inhibition and the inhibition at 37 ppm is 5.4%. Moreover, in assay [2] (setting [3]), the inhibition at 5 ppm is less than 0%, the inhibition at 9 ppm is less than 0%, the inhibition at 18 ppm was less than 0% and the inhibition at 27 ppm stood at 2.4%. In assay [2] (setting [3]), the inhibition at 32 ppm stood at 17.8% and the inhibition at 37 ppm came out at 31.1%.

In assay [1] (Pseudomonas), `Cc1cc(O)cc(C)c1O` [d, 2,6-Dimethylhydroquinone] came in with an inhibition at 5 ppm of less than 0%, an inhibition at 9 ppm of 6.3%, an inhibition at 18 ppm of 0.8% and an inhibition at 27 ppm of 6.6%. In assay [1] (Pseudomonas), this compound displayed an inhibition at 32 ppm of 14% and an inhibition at 37 ppm of 5.4%. In assay [2] (setting [3]), the inhibition at 5 ppm came out at 12.7%, the inhibition at 9 ppm came to 11.2%, the inhibition at 18 ppm is less than 0% and the inhibition at 27 ppm was 6.3%. Moreover, in assay [2] (setting [3]), the inhibition at 32 ppm is 17.8% and the inhibition at 37 ppm was 31.9%.

Turning to `Cc1c(O)cccc1O` [Compound 6, 2-Methylresorcinol], the inhibition at 83 ppm is less than 0% in assay [1] (Pseudomonas, Test Example 3, final concentration 83 ppm) and less than 0% in assay [2] (Pseudomonas, Test Example 3, final concentration 83 ppm, read-out: BF inhibition (%)). The inhibition at 165 ppm in assay [1] (Pseudomonas, Test Example 3, final concentration 165 ppm) was 5.2%; in assay [2] (Pseudomonas, Test Example 3, final concentration 165 ppm, read-out: BF inhibition (%)), less than 0%. Also, the inhibition at 331 ppm is less than 0% in assay [1] (Pseudomonas, Test Example 3, final concentration 331 ppm) and less than 0% in assay [2] (Pseudomonas, Test Example 3, final concentration 331 ppm, read-out: BF inhibition (%)). Moreover, the inhibition at 496 ppm is 12.3% in assay [1] (Pseudomonas, Test Example 3, final concentration 496 ppm) and 53% in assay [2] (Pseudomonas, Test Example 3, final concentration 496 ppm, read-out: BF inhibition (%)). In addition, the inhibition at 579 ppm in assay [1] (Pseudomonas, Test Example 3, final concentration 579 ppm) was found to be 20%; in assay [2] (Pseudomonas, Test Example 3, final concentration 579 ppm, read-out: BF inhibition (%)) it was 52.2%. The inhibition at 661 ppm worked out at 13.3% in assay [1] (Pseudomonas, Test Example 3, final concentration 661 ppm) and 56.3% in assay [2] (Pseudomonas, Test Example 3, final concentration 661 ppm, read-out: BF inhibition (%)).

For `CC(C)c1ccc(O)cc1O` [Compound 7, 4-Isopropylresorcinol], the inhibition at 101 ppm in assay [1] (Pseudomonas, Test Example 3) is less than 0%; in assay [2] (Pseudomonas, Test Example 3, read-out: BF inhibition (%)), less than 0%. Further, the inhibition at 203 ppm in assay [1] (Pseudomonas, Test Example 3, final concentration 203 ppm) is 5.7%; in assay [2] (Pseudomonas, Test Example 3, final concentration 203 ppm, read-out: BF inhibition (%)) it was less than 0%. For the same compound, the inhibition at 405 ppm in assay [1] (Pseudomonas, Test Example 3, final concentration 405 ppm) is less than 0%; in assay [2] (Pseudomonas, Test Example 3, final concentration 405 ppm, read-out: BF inhibition (%)) it was less than 0%. Moreover, the inhibition at 608 ppm came out at 4.8% in assay [1] (Pseudomonas, Test Example 3, final concentration 608 ppm) and 29.1% in assay [2] (Pseudomonas, Test Example 3, final concentration 608 ppm, read-out: BF inhibition (%)). Also, the inhibition at 709 ppm in assay [1] (Pseudomonas, Test Example 3, final concentration 709 ppm) was 19.5%; in assay [2] (Pseudomonas, Test Example 3, final concentration 709 ppm, read-out: BF inhibition (%)), 29.3%. Further, the inhibition at 810 ppm in assay [1] (Pseudomonas, Test Example 3, final concentration 810 ppm) was 40.2%; in assay [2] (Pseudomonas, Test Example 3, final concentration 810 ppm, read-out: BF inhibition (%)), 21%.

Regarding `Oc1ccc(O)c(O)c1` [h, Hydroxyhydroquinone], the inhibition at 17 ppm in assay [1] (Pseudomonas, final concentration 17 ppm) is 46.2%; in assay [2] (Pseudomonas, final concentration 17 ppm, read-out: BF inhibition (%)) it was 78.2%. Besides, the inhibition at 34 ppm in assay [1] (Pseudomonas, final concentration 34 ppm) came out at 18%; in assay [2] (Pseudomonas, final concentration 34 ppm, read-out: BF inhibition (%)), 96.2%. Further, the inhibition at 67 ppm came to 7.2% in assay [1] (Pseudomonas, final concentration 67 ppm) and 96.1% in assay [2] (Pseudomonas, final concentration 67 ppm, read-out: BF inhibition (%)). For the same compound, the inhibition at 101 ppm in assay [1] (Pseudomonas) is 1.7%; in assay [2] (setting [3]), 96.3%. The inhibition at 118 ppm in assay [1] (Pseudomonas, final concentration 118 ppm) turned out to be 2%; in assay [2] (Pseudomonas, final concentration 118 ppm, read-out: BF inhibition (%)), 96.3%. For the same compound, the inhibition at 134 ppm in assay [1] (Pseudomonas, final concentration 134 ppm) worked out at 5.4%; in assay [2] (Pseudomonas, final concentration 134 ppm, read-out: BF inhibition (%)), 96.4%.
